Where two headings read alike, the source gives them in different places.
Tests used:
[1] = test system: human erythroleukemia cells; assay: Thalidomide-induced apoptotic cell death of erythroleukemia cells; assay type: cell-based
Method: The human myeloid leukemia cells were cultured in RPMI 1640 medium supplemented with 10% non-inactivated fetal bovine serum. The effects of PACAP38, [D-Ser^2]PACAP38 and VIP on apoptotic cell death was assessed by the quantitative determination of cytoplasmic histone-associated DNA-fragmentation (mono- and oligonucleosomes) after exposure to thalidomide for 48 hours. Each value represents the mean plus/minus the standard deviation of four determinations. **p<0.01 and *p<0.05 compared to the thalidomide-treated (control) cells.

[2] = test system: Middle cerebral artery occlusion (MCAO) in the rat; conditions: cited from earlier work; for reduction of the infarct volume: 48 hours after start
L-132 human lung cells = assay: Bleomycin-induced apoptotic cell death of human pulmonary epithelial cells; assay type: cell-based; conditions: L-132 cells, peptide added to the medium, FIG. 12
Method: The L-132 human lung cells were cultured in Eagle's Minimum Essential Medium supplemented with 10% fetal bovine serum. […] Each value represents the mean plus/minus the standard deviation of four determinations in three replicate experiments. **p<0.01 and *p<0.05 compared to the bleomycin-treated (control) cells.
At the highest dose tested (10^−6 M), all three peptides reduced the apoptotic cell death of these epithelial cells by more than 60%. […] Therefore, pre- and/or post-treatment of subjects undergoing bleomycin-based cancer chemotherapy with therapeutic doses of PACAP38 and/or PACAP analogs should result in a higher maximal tolerable dose of bleomycin, and an increased frequency of partial clinical responses and/or an increased number of complete remissions.

[3] = test system: MCF-7 human breast cancer cells; assay: Doxorubicin-induced apoptotic cell death of breast cancer cells; assay type: cell-based; conditions: MCF-7 cells, doxorubicin 48 hours, FIG. 14
Method: The MCF-7 human breast cancer cells were cultured in Eagle's Minimum Essential Medium supplemented with 10% non-inactivated fetal bovine serum and 0.05 mM 2-mercaptoethanol. The effects of PACAP38 and N-acetyl[Ala^16,17,D-Lys^38]PACAP38 on apoptotic cell death were assessed by the quantitative determination of cytoplasmic histone-associated DNA-fragmentation (mono- and oligonucleosomes) after exposure to doxorubicin for 48 hours. Each value represents the mean plus/minus the standard deviation of three determinations. **p<0.01 compared to the doxorubicin-treated (control) cells.
At the highest dose tested (10^−6 M), both peptides reduced the apoptotic cell death of these breast cancer cells by more than 50%.

[4] = test system: light-chain immunoglobulin-secreting human myeloma cells; assay: Doxorubicin-induced apoptotic cell death of myeloma cells; assay type: cell-based
Method: (§1) The light-chain immunoglobulin-secreting human myeloma cells were cultured in RPMI 1640 medium supplemented with 10% non-inactivated fetal bovine serum and 0.05 mM 2-mercaptoethanol. The effects of PACAP38, and [Ala^16,17,D-Lys^38]PACAP38 on apoptotic cell death was assessed by the quantitative determination of cytoplasmic histone-associated DNA-fragmentation (mono- and oligonucleosomes) after exposure to doxorubicin for 48 hours. Each value represents the mean plus/minus the standard deviation of three determinations. **p<0.01 and *p<0.05 compared to the doxorubicin-treated (control) cells.
At the lowest dose tested (10^−8 M), both peptides reduced the doxorubicin-induced apoptotic cell death of these malignant plasma cells.

[5] = test system: Jurkat human T-lymphocyte leukemia cells; assay: Etoposide-induced apoptotic cell death of leukemia cells; assay type: cell-based
Method: The Jurkat human T-lymphocyte leukemia cells were cultured in RPMI 1640 medium supplemented with 10% non-inactivated fetal bovine serum. The effects of PACAP27 and PACAP38 on apoptotic cell death was assessed by the quantitative determination of cytoplasmic histone-associated DNA-fragmentation (mono- and oligonucleosomes) after exposure to etoposide for 48 hours. Each value represents the mean plus/minus the standard deviation of three determinations. **p<0.01 and *p<0.05 compared to the etoposide-treated (control) cells.

[6] = test system: PC-12 rat pheochromocytoma cells; assay: Cisplatin-induced apoptotic cell death of pheochromocytoma cells; assay type: cell-based; conditions: PC-12 cells
Method: The PC-12 rat pheochromocytoma cells were cultured in F-12K medium supplemented with 15% horse serum and 2.5% fetal bovine serum. The dose-dependent inhibitory effects of PACAP38 and the PACAP38 analogs on apoptotic cell death were assessed by the quantitative determination of cytoplasmic histone-associated DNA-fragmentation (mono- and oligonucleosomes) after exposure to cisplatin for 24 hours. Each value represents the mean plus/minus the standard error of four determinations. **p<0.01 and *p<0.05 compared to the cisplatin-treated (control) cells.

[7] = test system: light-chain immunoglobulin-secreting human myeloma cells; assay: Thalidomide-induced apoptotic cell death of myeloma cells; assay type: cell-based
Method: as §1, with “PACAP38” for “PACAP38, and [Ala^16,17,D-Lys^38]PACAP38”, “thalidomide” for “doxorubicin”, “four” for “three”, “thalidomide-treated” for “doxorubicin-treated”

HK-2 human kidney cells = assay: Cell-based adhesion assay: binding of cisplatin-treated renal cells to extracellular matrix components; conditions: HK-2 cells, 50 μM cisplatin, FIG. 5
Text: The wells of a 96-well plate were coated with […] fibronectin, collagen I or collagen IV. […] PACAP38 partially reversed the decrease in binding to fibronectin and collagen IV in the cells exposed to cisplatin. Each value represents the mean plus/minus the standard error of four determinations. **p<0.01 compared to the corresponding cisplatin-treated (control) cells.

[8] = test system: Four-vessel occlusion in the rat; conditions: cited from earlier work

PACAP38
lowest dose with significant enhancement of thalidomide-induced apoptotic cell death [1]: 10^−8 M | effect on thalidomide-induced apoptotic cell death ([1]; thalidomide 48 hours, FIG. 20): dose-dependent enhancement | reduction of the infarct volume ([2]; 160 pmol/hr i.v. infusion beginning 4 hours after start of MCAO): approximately 51% | reduction of the infarct volume ([2]; 160 pmol/hr i.v. infusion beginning 8 hours after start of MCAO): ~22% | reduction of the infarct volume ([2]; 160 pmol/hr i.v. infusion beginning 12 hours after start of MCAO): ~12% | effect of continuous intravenous infusion on plasma glucose levels, blood gases, blood pressure ([2]; 160 pmol/hr i.v.): did not appear to alter plasma glucose levels, blood gases or blood pressure | reduction in bleomycin-induced apoptotic cell death (L-132 human lung cells): significant dose-dependent reduction | reduction in doxorubicin-induced apoptotic cell death [3]: dose-dependent reduction | effect on doxorubicin-induced apoptotic cell death (dose-response) ([4]; doxorubicin 48 hours, FIG. 16): biphasic dose-response effect | effect on doxorubicin-induced apoptotic cell death ([4]; highest dose tested (10^−6 M)): significantly enhanced | effect on doxorubicin-induced apoptotic cell death ([4]; lowest dose tested (10^−8 M)): reduced | reduction in etoposide-induced apoptotic cell death ([5]; Jurkat cells, etoposide 48 hours, FIG. 15): small reduction | significance of the reduction of etoposide-induced apoptotic cell death ([5]; Jurkat cells, highest dose tested 10^−6 M): only significant at the highest dose | potency as cytoprotectant of kidney and lung epithelial cells relative to protection of T-lymphocyte leukemia cells against etoposide ([5]; versus cisplatin (FIG. 3), doxorubicin (FIG. 11), bleomycin (FIG. 12)): about 100 fold | reduction in cisplatin-induced apoptotic cell death ([6]; cisplatin 24 hours, FIG. 13): dose-dependent reduction | reduction of cisplatin-induced apoptotic cell death ([6]; highest dose tested (10^−6 M)): significantly reduced | lowest dose with significant enhancement of thalidomide-induced apoptotic cell death [7]: 10^−8 M | effect on thalidomide-induced apoptotic cell death ([7]; thalidomide 48 hours, FIG. 19): dose-dependent enhancement | reversal of inhibitory effect of cisplatin on binding to fibronectin-based or collagen IV-based matrix (HK-2 human kidney cells): significantly reversed | reduction in the number of CA1 pyramidal cells at day 7 post-occlusion ([8]; 16 pmol/hr or 160 pmol/hr i.v. for 6 days beginning 24 hours after occlusion): significantly reversed | side-effects during 6 days continuous infusion ([8]; 16 pmol/hr or 160 pmol/hr i.v.): no obvious side-effects

Reference: patent US20110268789A1, “USE OF PITUITARY ADENYLATE CYCLASE-ACTIVATING POLYPEPTIDE (PACAP) AND PACAP ANALOGS AS ADJUNCTIVE TREATMENTS WITH ANTICANCER AGENTS” (priority 2008, published 2011)
